No end group written: not given here. *: point of attachment. Biotin = O=C1N[C@H]2[C@H](CS[C@H]2CCCCC(=O)*)N1
Experiments:
GST-MLK1 SH3 [1] = assay: specificity ELISA, MLK1; type: binding, human; conditions: biotinylated peptide ≈2 μM on NeutrAvidin; GST-SH3 0.15 μM, 1–1.5 h; anti-GST-HRP; triplicate (Fig. 8)
Procedure: (§1) Figure 8. Binding of MIP and NS5A peptides to SH3 domain of other members of MLK subfamily (MLK1–4). To determine whether MIP and NS5A can interact with SH3 domains of MLK1–4 proteins, the purified GST-MLK1–4 SH3 domains were incubated with biotinylated peptides, NS5A peptide ([…]-GGG-K-biotin), MIP ([…]-K-biotin), and MIP-R12A ([…]-K-biotin), immobilized on a NeutrAvidin-coated 96-well ELISA plate. Binding of SH3 domain was detected with anti-GST antibody conjugated to HRP. […] See also Fig. S6.
(§2) Two plasmids, gifts from Dr. Gerardo Morfini, University of Illinois at Chicago, encoding a GST protein fused to either the WT or mutant Y52A of the SH3 domain of MLK3 (UniProt entry Q16584; aa 43–104), respectively, between BamHI and EcoRI sites, were transformed into the Escherichia coli strain Rosetta(DE3)pLysS. DNA fragments encoding the SH3 domain of MLK1 (UniProt entry P80192; aa 52–116), MLK2 (UniProt entry Q02779; aa 16–81), and MLK4 (UniProt entry Q5TCX8; aa 38–102) were commercially prepared as gBlocks® Gene Fragments (Integrated DNA Technologies, Inc.). All coding regions were codon-optimized for E. coli expression. DNA fragments were cleaved with BamHI-HF® and EcoRI-HF® (New England Biolabs) and subsequently ligated into pGex-2T vector. […]

GST-MLK2 SH3 [2] = assay: specificity ELISA, MLK2; type: binding, human; conditions: biotinylated peptide ≈2 μM on NeutrAvidin; GST-SH3 0.15 μM, 1–1.5 h; anti-GST-HRP; triplicate (Fig. 8)
Procedure: as §1, §2

GST-MLK3 SH3 [3] = assay: specificity ELISA, MLK3; type: binding, human; conditions: biotinylated peptide ≈2 μM on NeutrAvidin; GST-SH3 0.15 μM, 1–1.5 h; anti-GST-HRP; triplicate (Fig. 8)
Procedure: as §1, §2

GST-MLK4 SH3 [4] = assay: specificity ELISA, MLK4; type: binding, human; conditions: biotinylated peptide ≈2 μM on NeutrAvidin; GST-SH3 0.15 μM, 1–1.5 h; anti-GST-HRP; triplicate (Fig. 8)
Procedure: as §1, §2

MLK3 SH3 domain Y52A = assay: binding to Y52A mutant of MLK3 SH3; design: species or system human; conditions: data not shown
Text: Two plasmids, gifts from Dr. Gerardo Morfini, University of Illinois at Chicago, encoding a GST protein fused to either the WT or mutant Y52A of the SH3 domain of MLK3 (UniProt entry Q16584; aa 43–104), respectively, between BamHI and EcoRI sites, were transformed into the Escherichia coli strain Rosetta(DE3)pLysS. DNA fragments encoding the SH3 domain of MLK1 (UniProt entry P80192; aa 52–116), MLK2 (UniProt entry Q02779; aa 16–81), and MLK4 (UniProt entry Q5TCX8; aa 38–102) were commercially prepared as gBlocks® Gene Fragments (Integrated DNA Technologies, Inc.). All coding regions were codon-optimized for E. coli expression. DNA fragments were cleaved with BamHI-HF® and EcoRI-HF® (New England Biolabs) and subsequently ligated into pGex-2T vector. The resulting DNA constructs, pGex-MLK1 SH3, pGex-MLK2 SH3, and pGex-MLK4 SH3 (verified by sequencing) were transformed into E. coli strain BL21(DE3).

GST tag = assay: binding of MIP to GST tag; conditions: ELISA
Procedure: After three washes with PBS containing 0.1% Tween 20 (PBST), retention of the SH3 domain fusion protein in wells was detected with an anti-GST antibody conjugated to horseradish peroxidase (HRP) (GE Healthcare; 45 min; 1:5000 in PBST). Following three washes with PBST, the chromogenic substrate solution 2,2-azinobis(3-ethylbenzthiazoline-6-sulfonic acid) (ABTS; Pierce); 10 ml of 50 mM sodium citrate, pH 4.0; and 100 μl of 3% H2O2 were added to the plate (100 μl/well). The absorbance was measured at 405 nm with a POLARstar OPTIMA microtiter plate reader (BMG Labtech).

SH3 domain of MLK3 = conditions: cited from earlier work
Text: Mixed-lineage protein kinase 3 (MLK3) is widely expressed in a variety of normal and cancerous tissues, such as brain, lung, liver, heart, breast, kidney, pancreas, and skeletal muscle ([34][–][36]). MLK3, also known as MAP3K11, is a serine/threonine protein kinase involved in regulating the JNK, p38, and ERK pathways ([37][–][42]). It is composed of several modules: an SH3 domain, a kinase domain, tandem leucine zippers, a Cdc42/Rac interactive binding (CRIB) motif, several linker regions, and a proline-rich C-terminal tail ([39], [43]). According to the BioGRID interaction database ([44]), M ...

GST-MLK3 SH3 [5] = assay: phage ELISA of phage-displayed MIP and variants on GST-MLK3 SH3; type: binding, human; conditions: original clone/MIP, anti-M13 mAb-HRP detection, experiments in duplicate, averaged
Procedure: (§3) Figure 1. […] The presence of virions in the supernatant was determined by coating the wells of the microtiter plate with an anti-M13 mAb (anti-M13 Ab). Virions, which were retained in the microtiter plate wells, were detected with anti-M13 mAb conjugated to HRP. […] See also Fig. S1.
Figure 2. […] The MIP sequence, NH2-[…]-COOH, was fused to the N terminus of the pIII capsid protein of bacteriophage M13 ([51]) to facilitate type 3 pentavalent display. Systematic alanine replacements in the peptide were generated by Kunkel mutagenesis ([11]); Ala-1 and Ala-14 were replaced with Val. […] The signal for binding of MIP (WT) to GST-MLK3 SH3 is set as 100%, and other values are normalized to it. […] See also Fig. S2.
Screens for peptide ligands were performed following a protocol published previously ([11]). […] After three rounds of affinity selection, individual phage clones were isolated, and their binding was evaluated via phage ELISA ([11]). […]
All constructs were generated via Kunkel mutagenesis ([11], [57], [58]) and facilitated type 3 (pentavalent) display. […] All constructs were verified by DNA sequencing, and phage clones were evaluated for their binding to the target (GST-MLK3 SH3) via phage ELISA ([11]). […]

GST fusion partner = assay: phage ELISA of phage-displayed MIP on GST fusion partner; type: binding; conditions: duplicate (Fig. 1)
Procedure: as §3
Screens for peptide ligands were performed following a protocol published previously ([11]). The purified target protein, GST-MLK3 SH3-WT, was prebound to GSH magnetic beads (Pierce, catalogue number 88821), and nonspecific binding sites were blocked with phosphate-buffered saline (PBS; 137 mM NaCl, 3 mM KCl, 8 mM Na2HPO4, 1.5 mM KH2PO4) containing 3% (w/v) bovine serum albumin (BSA). […] After three rounds of affinity selection, individual phage clones were isolated, and their binding was evaluated via phage ELISA ([11]). Positive clones were then sequenced.

GST-MLK3 SH3(43–104) [6] = biological target: T1, GST-MLK3 SH3(43–104) (human, UniProt Q16584 43-104); assay: ELISA; conditions: both partners purified
T1 construct: also called GST-MLK3 SH3-WT; SH3 WT
T1 sequence (looked up): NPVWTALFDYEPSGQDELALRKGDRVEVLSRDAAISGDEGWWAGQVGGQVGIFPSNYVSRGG

GST-MLK1 SH3 [7] = biological target: T2, GST-MLK1 SH3 (UniProt P80192 52-116); assay: ELISA; conditions: both partners purified
T2 construct: also called SH3 domain of MLK1
T2 sequence (looked up): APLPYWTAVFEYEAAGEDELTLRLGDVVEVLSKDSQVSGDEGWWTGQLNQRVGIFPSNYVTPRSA

GST-MLK2 SH3 [8] = biological target: T3, GST-MLK2 SH3 (UniProt Q02779 16-81); assay: ELISA; conditions: both partners purified
T3 construct: also called SH3 domain of MLK2
T3 sequence (looked up): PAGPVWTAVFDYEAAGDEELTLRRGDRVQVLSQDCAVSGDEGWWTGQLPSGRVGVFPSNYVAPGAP

GST-MLK4 SH3 [9] = biological target: T4, GST-MLK4 SH3 (UniProt Q5TCX8 38-102); assay: ELISA; conditions: both partners purified
T4 construct: also called SH3 domain of MLK4
T4 sequence (looked up): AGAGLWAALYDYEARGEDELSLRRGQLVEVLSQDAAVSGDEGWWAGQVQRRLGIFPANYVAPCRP

SEC = biological target: the molecule itself; assay: SEC
GST-MLK3 SH3(43–104) [10] = biological target: T1, GST-MLK3 SH3(43–104); assay: ELISA; competition ELISA: GST-MLK3 SH3 (5 μg/ml) preincubated 1–1.5 h with ≈0.01–100 μM unlabeled competitor peptide, then 45 min on biotinylated MIP (≈2 μM) captured via NeutrAvidin; anti-GST-HRP detection; GST tag tested as a control; conditions: both partners purified

**Q.** For `CC[C@H](C)[C@H](NC(=O)[C@H](C)N)C(=O)N[C@@H](CCCNC(=N)N)C(=O)N[C@H](C(=O)N[C@@H](CC(N)=O)C(=O)N1CCC[C@H]1C(=O)N[C@@H](CC(N)=O)C(=O)NCC(=O)N[C@H](C(=O)N[C@@H](Cc1c[nH]c2ccccc12)C(=O)N[C@@H](CO)C(=O)N[C@@H](CCCNC(=N)N)C(=O)N[C@@H](CCC(N)=O)C(=O)N[C@@H](C)C(=O)N[C@@H](CCC(=O)O)C(=O)N[C@H](C(=O)N[C@H](C(=O)N[C@@H](CCC(=O)O)C(=O)N[C@@H](CO)C(=O)O)C(C)C)[C@@H](C)O)[C@@H](C)O)[C@@H](C)CC` [MIP], which “binding to MLK1 SH3” value (GST-MLK1 SH3 [1]) is on record?
**A.** bound

**Q.** And the “binding to MLK2 SH3” value (GST-MLK2 SH3 [2])?
**A.** did not bind

**Q.** And the “binding to MLK3 SH3” value (GST-MLK3 SH3 [3])?
**A.** bound

**Q.** What about the “binding to MLK4 SH3” value (GST-MLK4 SH3 [4]) of the same molecule?
**A.** bound

**Q.** And the “effect of SH3 mutation Y52A on peptide binding” value (MLK3 SH3 domain Y52A)?
**A.** disrupts binding

**Q.** What about the “interaction with GST tag” value (GST tag) of the same molecule?
**A.** no interactions

**Q.** With “HCV NS5A: hepatitis C virus nonstructural 5A protein” as the molecule, how does the “interaction with SH3 domain of MLK3” value (SH3 domain of MLK3) read?
**A.** interact with the SH3 domain of MLK3 via a PXXPXR motif

**Q.** For “NH2-AIRINPNGTWSRQAETVES-COOH [phage-displayed MIP, MIP fused to the N terminus of the pIII capsid protein of bacteriophage M13]”, which “binding to GST-MLK3 SH3 in phage ELISA” value (GST-MLK3 SH3 [5]) is on record?
**A.** bind to the WT form of the MLK3 SH3 domain

**Q.** And the “binding to GST fusion partner in phage ELISA” value (GST fusion partner)?
**A.** not the GST fusion partner

B1: biotinylated NS5A peptide ([…]-GGG-K-biotin) (peptide)
peptide: KKAPTPPPRRRRGGGK(Biotin)
notes: also called immobilized NS5A; source: synthetic peptide
**Q.** Does B1 bind (GST-MLK3 SH3(43–104) [6])?
**A.** binds

**Q.** Does B1 bind (GST-MLK1 SH3 [7])?
**A.** binds

**Q.** Does B1 bind (GST-MLK2 SH3 [8])?
**A.** binds

**Q.** Does B1 bind (GST-MLK4 SH3 [9])?
**A.** binds

B2: MLK3 SH3(41–105)-MIP(1–13) fusion protein (other, human)
chain: YANPVWTALFDYEPSGQDELALRKGDRVEVLSRDAAISGDEGWWAGQVGGQVGIFPSNYVSRGGGAIRINPNGTWSRQ
notes: also called the WT construct
**Q.** Does B2 bind (SEC)?
**A.** binds

B3: unlabeled MIP (synthetic) (peptide)
peptide: AIRINPNGTWSRQAETVES
notes: also called MIP(1–19); soluble MIP peptide; source: synthetic peptide
**Q.** Which IC50 (GST-MLK3 SH3(43–104) [6]) does the source give for B3 here?
**A.** 6.6 ± 1.6 µM

**Q.** And the IC50 (GST-MLK3 SH3(43–104) [10])?
**A.** 15.8 ± 0.4 µM

— article PMC6120190, “Identification of two distinct peptide-binding pockets in the SH3 domain of human mixed-lineage kinase 3” (The Journal of Biological Chemistry, 2018)
